The results in this text go back to US8591943B2, “Pyrazolo[1,5-a]pyrimidine derivatives as mTOR inhibitors” (Merck Sharp & Dohme Corp., priority 2009, dated 2013).

A word on the IC50: it is the midpoint of a concentration-inhibition curve.

One assay concerns the target mTOR enzyme (Homo sapiens, UniProt P42345). Kind of assay: mTOR Kinase Assay. The class given is biochemical. As to the method: The mTOR assay buffer contains 10 mM hepes (pH 7.4), 50 mM NaCl, 100 μg/ml BSA, 50 mM B-glycerophosphate, 10 mM MnCl2 and 0.5 mM DTT. 20 ng of mTOR enzyme is preincubated with the compound for 10 minutes. 5 μM ATP and 0.1 μM GSTS6K is added. The reaction is incubated for one hour at 30° C. Anti phospho p70S6K (about 1.7 ng/well) and anti GSTXL665 (1:1 Ratio with the substrate GSTS6K) are added after incubating. The plates are read at least 2 hours after adding the anti phospho p70S6K and the anti GSTXL665.

The target in the next assay is T1, Cyclin E/CDK2 (Homo sapiens, UniProt P24941).
T1 construct: made in house; host or cells: SF9 cells, baculovirus co-infection
Put plainly: In Vitro Cyclin E/CDK2 Kinase Assay. Format: biochemical. The following applies: rated A-F. The source says:
Cyclin E was cloned into pVL1393 (Pharmingen, La Jolla, Calif.) by PCR, with the addition of 5 histidine residues at the amino-terminal end to allow purification on nickel resin. The expressed protein was approximately 45 kDa. CDK2 was cloned into pVL1393 by PCR, with the addition of a haemaglutinin epitope tag at the carboxy-terminal end (YDVPDYAS). The expressed protein was approximately 34 kDa in size.
Recombinant baculoviruses expressing cyclin E and CDK2 were co-infected into SF9 cells at an equal multiplicity of infection (MOI=5), for 48 hrs. Cells were harvested by centrifugation at 1000 RPM for 10 minutes, then pellets lysed on ice for 30 minutes in five times the pellet volume of lysis buffer containing 50 mM Tris pH 8.0, 150 mM NaCl, 1% NP40, 1 mM DTT and protease inhibitors (Roche Diagnostics GmbH, Mannheim, Germany). Lysates were spun down at 15000 RPM for 10 minutes and the supernatant retained. 5 mL of nickel beads (for one liter of SF9 cells) were washed three times in lysis buffer (Qiagen GmbH, Germany). Imidazole was added to the baculovirus supernatant to a final concentration of 20 mM, then incubated with the nickel beads for 45 minutes at 4° C. Proteins were eluted with lysis buffer containing 250 mM imidazole. Eluate was dialyzed about 15 hours in 2 liters of kinase buffer containing 50 mM Tris pH 8.0, 1 mM DTT, 10 mM MgCl2, 100 μM sodium orthovanadate and 20% glycerol. Enzyme was stored in aliquots at −70° C.
Cyclin E/CDK2 kinase assays can be performed as described below in low protein binding 96-well plates (Corning Inc, Corning, N.Y.).
The substrate used in these reactions is a biotinylated peptide derived from Histone H1 (from Amersham, UK). The substrate is thawed on ice and diluted to 2 μM in kinase buffer. Test compounds are diluted in 10% DMSO to desirable concentrations. For each kinase reaction, 20 μL of the 50 μg/mL enzyme solution (1 μg of enzyme) and 20 μl of the 2 μM substrate solution are mixed, then combined with 10 μL of diluted compound in each well for testing. The kinase reaction is initiated by addition of 50 μL of 2 μM ATP and 0.1 μCi of ^33P-ATP (from Amersham, UK). The reaction is allowed to run for 1 hour at room temperature, then is stopped by adding 200 μL of stop buffer containing 0.1% Triton X-100, 1 mM ATP, 5 mM EDTA, and 5 mg/mL streptavidine coated SPA beads (from Amersham, UK) for 15 minutes. The SPA beads are then captured onto a 96-well GFIB filter plate (Packard/Perkin Elmer Life Sciences) using a Filtermate universal harvester (Packard/Perkin Elmer Life Sciences.). Non-specific signals are eliminated by washing the beads twice with 2M NaCl then twice with 2 M NaCl with 1% phosphoric acid. The radioactive signal can then be measured using, for example, a TopCount 96 well liquid scintillation counter (from Packard/Perkin Elmer Life Sciences).

For the next assay, the target named is T2, recombinant His-CHK1 (Homo sapiens, UniProt O14757).
T2 sequence (O14757 1-265 limits assumed): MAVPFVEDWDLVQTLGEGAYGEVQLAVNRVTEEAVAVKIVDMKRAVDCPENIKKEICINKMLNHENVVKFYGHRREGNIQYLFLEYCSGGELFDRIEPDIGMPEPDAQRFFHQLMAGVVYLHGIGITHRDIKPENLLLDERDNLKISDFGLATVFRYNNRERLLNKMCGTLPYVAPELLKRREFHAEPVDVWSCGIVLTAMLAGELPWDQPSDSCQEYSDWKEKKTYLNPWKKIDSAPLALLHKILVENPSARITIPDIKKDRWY
Put plainly: CHK1 In Vitro Kinase Assay.

Structures are written as SMILES. Like-named read-outs stand apart in the source and are kept apart here.

Turning to `COC(=O)[C@@H]1CC[C@H](c2nc3c(-c4cnc5ccccc5c4)cnn3c(N)c2Br)CN1` (stereo in doubt) [Compound 2.6], the IC50 was < 100 nM against mTOR enzyme (rated A-F), > 5 µM against Cyclin E/CDK2 and 1 to 5 µM on recombinant His-CHK1.

For `Cn1cc(-c2cnn3c(N)cc(C4CCC(C(=O)O)NC4)nc23)cn1` (stereo not shown) [Compound 1.2], it took 146 nM to reach half-maximal inhibition on mTOR enzyme (IC50).

With `CN(C)C(=O)C1CCC(c2cc(N)n3ncc(-c4cnn(C)c4)c3n2)CN1` (stereo not shown) [Compound 2.9], the IC50 at mTOR enzyme (rated A-F) is 1000 to 5000 nM; on recombinant His-CHK1, > 5 µM.

As for `Nc1c(Br)c(N2CCC[S+]([O-])CC2)nc2c(-c3cnc4ccccc4c3)cnn12` (stereo not shown) [Compound 10.63], the results for the half-maximal inhibitory concentration (IC50) against mTOR enzyme (rated A-F), on Cyclin E/CDK2 and at recombinant His-CHK1 were < 100 nM, > 5 µM and > 5 µM, respectively.

At mTOR enzyme, `N#Cc1c(C2CCC(CC(=O)O)CC2)nc2c(-c3cnc4ccccc4c3)cnn2c1N` (stereo not shown) [Compound 6.6, [4-(7-Amino-6-cyano-3-quinolin-3-yl-pyrazolo[1,5-a]pyrimidin-5-yl)-cyclohexyl]-acetic acid] showed a 50% inhibitory concentration (IC50) of 1.4 nM.

With `Nc1c(Br)c(N2CCN3C(=O)NC(=O)C3C2)nc2c(-c3cnc4ccccc4c3)cnn12` (stereo not shown) [Compound 10.60], the figures for the IC50 on mTOR enzyme (rated A-F), at Cyclin E/CDK2 and at recombinant His-CHK1 were < 100 nM, > 5 µM and > 5 µM, respectively.

`Nc1c(Br)c(N2CCN3C(=O)NC(=O)CC3C2)nc2c(-c3cnc4ccccc4c3)cnn12` (stereo not shown) [Compound 10.5]: the concentration for half-maximal inhibition (IC50) on mTOR enzyme (rated A-F) is < 100 nM; at Cyclin E/CDK2, 0.501 to 1 µM; on recombinant His-CHK1, > 5 µM.

In the case of `COC(=O)c1ccc(-c2cc(N)n3ncc(-c4cnc5ccccc5c4)c3n2)cn1` [Compound 11.3], the results for the IC50 against mTOR enzyme (rated A-F), against Cyclin E/CDK2 and at recombinant His-CHK1 were 1000 to 5000 nM, > 5 µM and > 5 µM, respectively.

`CS(=O)(=O)N1CCC(c2cc(N)n3ncc(-c4cnc5ccccc5c4)c3n2)C1` (stereo not shown) [Compound 8.17]: the values for the half-inhibitory concentration (IC50) against mTOR enzyme (rated A-F), on Cyclin E/CDK2 and on recombinant His-CHK1 were < 100 nM, > 5 µM and > 5 µM, respectively.

With `Nc1c(Br)c(CN2CCN3C(=O)NC(=O)C3C2)nc2c(-c3cnc4ccccc4c3)cnn12` (stereo not shown) [Compound 13.4], the 50% inhibitory concentration (IC50) against mTOR enzyme (rated A-F) is < 100 nM; on Cyclin E/CDK2, > 5 µM; on recombinant His-CHK1, > 5 µM.

Regarding `CS(=O)(=O)N1CCC(c2nc3c(-c4cnc5ccccc5c4)cnn3c(N)c2Br)CC1` [Compound 8.18], the IC50 at mTOR enzyme (rated A-F) was < 100 nM; on Cyclin E/CDK2, 1 to 5 µM; at recombinant His-CHK1 it was > 5 µM.

As for `Nc1c(Br)c([C@H]2CC[C@H]3C(=O)NC(=O)N3C2)nc2c(-c3cnc4ccccc4c3)cnn12` [Compound 3.10], the IC50 at mTOR enzyme (rated A-F) is < 100 nM; on Cyclin E/CDK2, 0.501 to 1 µM; on recombinant His-CHK1, > 5 µM.

Regarding `COC(=O)[C@H]1CC[C@@H](c2nc3c(-c4cnc5ccccc5c4)cnn3c(N)c2Br)CN1` (stereo in doubt) [Compound 2.7], the IC50 is 101 to 200 nM against mTOR enzyme (rated A-F), > 5 µM against Cyclin E/CDK2 and > 5 µM on recombinant His-CHK1.

In the case of `CC(=O)c1c(N2CCS(=O)(=O)CC2)nc2c(-c3cnc4ccccc4c3)cnn2c1N` [Compound 10.62], the half-maximal inhibitory concentration (IC50) is < 100 nM against mTOR enzyme (rated A-F), > 5 µM against Cyclin E/CDK2 and > 5 µM at recombinant His-CHK1.

In turn, `Nc1cc(C2CCC(C(=O)O)NC2)nc2c(-c3cnc4ccccc4c3)cnn12` (stereo not shown) [Compound 1.1, 5-(7-amino-3-(quinolin-3-yl)pyrazolo[1,5-a]pyrimidin-5-yl)piperidine-2-carboxylic acid] gave an IC50 against mTOR enzyme of 12.4 nM.

On to `Nc1c(Br)c(C2CCC3(CC2)OCCO3)nc2c(-c3cnc4ccccc4c3)cnn12` [Compound 6.7], for which the IC50 against mTOR enzyme (rated A-F) was < 100 nM; at recombinant His-CHK1, > 5 µM.

For `CC(=O)N1CCC(c2nc3c(-c4cnc5ccccc5c4)cnn3c(N)c2Br)C1` (stereo not shown) [Compound 8.7], the IC50 on mTOR enzyme (rated A-F) was < 100 nM; at recombinant His-CHK1, > 5 µM.

At mTOR enzyme, `Nc1c(Br)c(-c2ccc(CC(=O)O)cc2)nc2c(-c3cnc4ccccc4c3)cnn12` [Compound 11.1, [4-(7-Amino-6-bromo-3-quinolin-3-yl-pyrazolo[1,5-a]pyrimidin-5-yl)-phenyl]-acetic acid] gave an IC50 of 14.8 nM.
